Results published in the SangsterLogP compilation.

SMILES | logP
CC(C)C(=O)NCCN1CCc2ccccc2C1 | 2.87
O=C(NCCN1CCc2ccccc2C1)C1CCC1 | 2.9
O=C(NCCN1CCc2ccccc2C1)C1CC1 | 2.76
CC(C)C(=O)NCCCN1CCc2ccccc2C1 | 2.56
CC(C)(C)C(=O)NCCN1CCc2ccccc2C1 | 3.13
O=C(NCCCN1CCc2ccccc2C1)C1CCCC1 | 3.45
O=C(NCCN1CCc2ccccc2C1)C1CCC2CCCC21 (configuration not stated) | 4.37
O=C(NCCCCN1CCc2ccccc2C1)C12CC3CC(CC(C3)C1)C2 | 4.82
O=C(NCCCN1CCc2ccccc2C1)C1CCC1 | 3.12
CC(=O)NCCCN1CCc2ccccc2C1 | 2.66
O=C(CC1CC2CCC1C2)NCCN1CCc2ccccc2C1 (configuration not stated) | 4.26
O=C(CC1CC2CCC1C2)NCCCCN1CCc2ccccc2C1 (configuration not stated) | 4.58
O=C(NCCCN1CCc2ccccc2C1)C12CC3CC(CC(C3)C1)C2 | 5.14
CC(C)C(=O)NCCCCN1CCc2ccccc2C1 | 2.93
O=C(NCCCN1CCc2ccccc2C1)C1CCCCC1 | 3.44
O=C(NCCN1CCc2ccccc2C1)C1CCCC1 | 3.52
O=C(NCCCCN1CCc2ccccc2C1)C1CC1 | 3.02
CC(=O)NCCCCN1CCc2ccccc2C1 | 2.3
CC(C)(C)C(=O)NCCCCN1CCc2ccccc2C1 | 3.31
O=C(NCCN1CCc2ccccc2C1)C1CCCCC1 | 3.14
O=C(NCCCN1CCc2ccccc2C1)C1CC1 | 2.75
O=C(NCCN1CCc2ccccc2C1)C12CC3CC(CC(C3)C1)C2 | 4.61
CC(C)(C)C(=O)NCCCN1CCc2ccccc2C1 | 3.46
CC(=O)NCCN1CCc2ccccc2C1 | 1.83
O=C(NCCCCN1CCc2ccccc2C1)C1CCC1 | 3.3
O=C(NCCCN1CCc2ccccc2C1)C1CCC2CCCC21 (configuration not stated) | 4.5
O=C(NCCCCN1CCc2ccccc2C1)C1CCC2CCCC21 (configuration not stated) | 4.46
